Positions of bridges follow the written chain, without caps; N, C: chain ends. Non-standard residues stand in square brackets, D forms with d. Residues, ends and D or L forms follow the SMILES beside them. *: point of attachment. hPhe(3,5-F2-4-CF3) = N[C@@H](CCc1cc(F)c(C(F)(F)F)c(F)c1)C(=O)O; hPhe(3-Cl-4-CF3) = N[C@@H](CCc1ccc(C(F)(F)F)c(Cl)c1)C(=O)O; NMePhe(4-CF3) = CN[C@@H](Cc1ccc(C(F)(F)F)cc1)C(=O)O; Phe(2-F,5-Br) = N[C@@H](Cc1cc(Br)ccc1F)C(=O)O; 3Oxa8azabicyclo(3.2.1)octane = C1CC2COCC1N2*; NMeAbu(4,4,4-F3) = CN[C@@H](CC(F)(F)F)C(=O)O; NMeAla(cPent) = CN[C@@H](CC1CCCC1)C(=O)O; NMeGly(cPent) = CN[C@H](C(=O)O)C1CCCC1; Phe(3-I) = N[C@@H](Cc1cccc(I)c1)C(=O)O; Pro(4,4-F2) = O=C(O)[C@@H]1CC(F)(F)CN1; NMeY = CN[C@@H](Cc1ccc(O)cc1)C(=O)O; NMeCha = CN[C@@H](CC1CCCCC1)C(=O)O; NMeChg = CN[C@H](C(=O)O)C1CCCCC1; NMeI = CC[C@H](C)[C@H](NC)C(=O)O; NMeD = CN[C@@H](CC(=O)O)C(=O)O; NMeL = CN[C@@H](CC(C)C)C(=O)O; NMeAbu = CC[C@H](NC)C(=O)O; Morpholide = C1CN(*)CCO1; NMeA = CN[C@@H](C)C(=O)O; NMeAib = CNC(C)(C)C(=O)O; Nle = CCCC[C@H](N)C(=O)O; Piperidide = C1CCN(*)CC1; Pra = C#CC[C@H](N)C(=O)O; Pyrrolidide = C1CCN(*)C1; Ac5c = NC1(C(=O)O)CCCC1; Aze = O=C(O)[C@@H]1CCN1; X1 = FC1(F)CN(*)CC1(F)F; Ac4c = NC1(C(=O)O)CCC1; Sar = CNCC(=O)O
Biological target: T1, Kras and SOS1 (biotin-tagged human Kras loaded with GDP, His-tagged human SOS1) (Homo sapiens, UniProt P01116, G12D)
T1 construct: made in house; host or cells: E. coli (stated for Kras only)
Assay: Protein-protein interaction inhibition between Kras and SOS1 (KrasGl2D-SOS PPI) using AlphaScreen
Type: binding
Conditions: AlphaScreen; biotin-tagged human Kras loaded with GDP, His-tagged human SOS1; read-out: KRAS G12D-SOS PPI IC50
Outline: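 Kras was produced in E. coli, purified, then loaded with GDP. It was paired via streptavidin acceptor beads with His-SOS1 held on nickel donor beads, and proximity signal at 520-620 nm was read after 680 nm illumination.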

T1 sequence (P01116 1-188 isoform P01116-2 G12D): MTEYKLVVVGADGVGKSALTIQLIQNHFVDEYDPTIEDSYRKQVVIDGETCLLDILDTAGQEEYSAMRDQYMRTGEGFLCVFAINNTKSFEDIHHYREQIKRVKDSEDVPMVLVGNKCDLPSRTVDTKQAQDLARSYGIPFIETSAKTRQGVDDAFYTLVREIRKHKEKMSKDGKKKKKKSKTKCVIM

CC[C@H](C)[C@@H]1NC(=O)[C@H](CC(C)C)N(C)C(=O)C[C@@H](C(=O)N2CCCC2)N(C)C(=O)[C@H](C2CCCCC2)N(C)C(=O)C2(CCC2)NC(=O)[C@@H]2CC(F)(F)CN2C(=O)[C@H](CCc2ccc(C(F)(F)F)c(Cl)c2)NC(=O)CN(C)C(=O)[C@H](CC2CCCCC2)N(C)C(=O)CN(C)C(=O)CN(C)C1=O [Compound 1163] ([NMeL]I[Sar][Sar][NMeCha][Sar][hPhe(3-Cl-4-CF3)][Pro(4,4-F2)][Ac4c][NMeChg][NMeD]-Pyrrolidide; lactam N-11) and CC[C@H](C)[C@@H]1NC(=O)[C@H](CC(C)C)N(C)C(=O)C[C@@H](C(=O)N2C3CCC2COC3)N(C)C(=O)[C@H](C2CCCCC2)N(C)C(=O)C2(CCCC2)NC(=O)[C@@H]2CC(F)(F)CN2C(=O)[C@H](CCc2ccc(C(F)(F)F)c(Cl)c2)NC(=O)CN(C)C(=O)[C@H](CC2CCCCC2)N(C)C(=O)CN(C)C(=O)CN(C)C1=O [Compound 1179] ([NMeL]I[Sar][Sar][NMeCha][Sar][hPhe(3-Cl-4-CF3)][Pro(4,4-F2)][Ac5c][NMeChg][NMeD]-{3Oxa8azabicyclo(3.2.1)octane}; lactam N-11) are within 1.5-fold of each other in IC50: 0.46 nM for the first, 0.52 nM for the second.

Compared with CC[C@H](C)[C@@H]1NC(=O)[C@H](CC(C)C)N(C)C(=O)C[C@@H](C(=O)N2CCCC2)N(C)C(=O)[C@H](C2CCCCC2)N(C)C(=O)C2(CCC2)NC(=O)[C@@H]2CCCN2C(=O)[C@H](CCc2cc(F)c(C(F)(F)F)c(F)c2)NC(=O)CN(C)C(=O)[C@H](CC2CCCCC2)N(C)C(=O)CN(C)C(=O)CN(C)C1=O [Compound 1165] ([NMeL]I[Sar][Sar][NMeCha][Sar][hPhe(3,5-F2-4-CF3)]P[Ac4c][NMeChg][NMeD]-Pyrrolidide; lactam N-11), CC[C@H](C)[C@@H]1NC(=O)[C@H](CC(C)C)N(C)C(=O)C[C@@H](C(=O)N2CCCC2)N(C)C(=O)[C@H](C2CCCC2)N(C)C(=O)C2(CCCC2)NC(=O)[C@@H]2CC(F)(F)CN2C(=O)[C@H](CCc2cc(F)c(C(F)(F)F)c(F)c2)NC(=O)CN(C)C(=O)[C@H](CC2CCCCC2)N(C)C(=O)CN(C)C(=O)CN(C)C1=O [Compound 1166] ([NMeL]I[Sar][Sar][NMeCha][Sar][hPhe(3,5-F2-4-CF3)][Pro(4,4-F2)][Ac5c][NMeGly(cPent)][NMeD]-Pyrrolidide; lactam N-11) is 1.6-fold lower in IC50: 0.73 nM for the first, 0.47 nM for the second. The second is the more potent here.

First: CC[C@H](C)[C@@H]1NC(=O)[C@H](CC(C)C)N(C)C(=O)C[C@@H](C(=O)N2CC(F)(F)C(F)(F)C2)NC(=O)[C@H]([C@@H](C)CC)N(C)C(=O)C2(CCCC2)NC(=O)[C@@H]2CCCN2C(=O)[C@H](CCc2ccc(C(F)(F)F)c(Cl)c2)NC(=O)CN(C)C(=O)[C@H](CC2CCCCC2)N(C)C(=O)CN(C)C(=O)CN(C)C1=O [Compound 1168] ([NMeL]I[Sar][Sar][NMeCha][Sar][hPhe(3-Cl-4-CF3)]P[Ac5c][NMeI]D-X1; lactam N-11)
Second: CC[C@H](C)[C@@H]1NC(=O)[C@H](CC2CCCC2)N(C)C(=O)C[C@@H](C(=O)N2CCCC2)N(C)C(=O)[C@H]([C@@H](C)CC)N(C)C(=O)C2(CCCC2)NC(=O)[C@@H]2CCCN2C(=O)[C@H](CCc2ccc(C(F)(F)F)c(Cl)c2)NC(=O)CN(C)C(=O)[C@H](Cc2ccc(C(F)(F)F)cc2)N(C)C(=O)[C@@H]2CCN2C(=O)[C@H](C)N(C)C1=O [Compound 1183] ([NMeAla(cPent)]I[NMeA][Aze][NMePhe(4-CF3)][Sar][hPhe(3-Cl-4-CF3)]P[Ac5c][NMeI][NMeD]-Pyrrolidide; lactam N-11)
The IC50 of the first is 140-fold higher: 100 nM for the first, 0.73 nM for the second.

Going from C#CC[C@@H]1NC(=O)[C@H](Cc2cccc(I)c2)NC(=O)CN(C)C(=O)[C@H](Cc2ccc(OC)cc2)N(C)C(=O)CN(C)C(=O)CN(C)C(=O)[C@H]([C@@H](C)CC)NC(=O)[C@H](CC(C)C)N(C)C(=O)C[C@@H](C(=O)N2CCCCC2)N(C)C(=O)[C@H](CC(C)C)NC(=O)C(C)(C)N(C)C1=O [Compound 1169] ([NMeL]I[Sar][Sar][NMeY](Me)[Sar][Phe(3-I)][Pra][NMeAib]L[NMeD]-Piperidide; lactam N-11) to CCCC[C@@H]1NC(=O)[C@H](Cc2cc(Br)ccc2F)NC(=O)CN(C)C(=O)[C@H](Cc2ccc(OC)cc2)N(C)C(=O)[C@@H]2CCN2C(=O)[C@H](C)N(C)C(=O)[C@H]([C@@H](C)CC)NC(=O)[C@H](CC)N(C)C(=O)C[C@@H](C(=O)N2CCCCC2)N(C)C(=O)[C@H](CC(C)C)NC(=O)C(C)(C)N(C)C1=O [Compound 1177] ([NMeAbu]I[NMeA][Aze][NMeY](Me)[Sar][Phe(2-F,5-Br)][Nle][NMeAib]L[NMeD]-Piperidide; lactam N-11), the IC50 falls from 53 nM to 12 nM (4.4-fold). The second is the more potent here.

With CC[C@H](C)[C@@H]1NC(=O)[C@H](CC(F)(F)F)N(C)C(=O)C[C@@H](C(=O)N2CCOCC2)N(C)C(=O)[C@H](C2CCCCC2)N(C)C(=O)C2(CCCC2)NC(=O)[C@@H]2CC(F)(F)CN2C(=O)[C@H](CCc2ccc(C(F)(F)F)c(Cl)c2)NC(=O)CN(C)C(=O)[C@H](Cc2ccc(C(F)(F)F)cc2)N(C)C(=O)CN(C)C(=O)CN(C)C1=O [Compound 1182] ([NMeAbu(4,4,4-F3)]I[Sar][Sar][NMePhe(4-CF3)][Sar][hPhe(3-Cl-4-CF3)][Pro(4,4-F2)][Ac5c][NMeChg][NMeD]-Morpholide; lactam N-11) the IC50 was 0.56 nM.
